Source: US8883963B2 (Cadila Healthcare Limited, priority 2007, dated 2014)
Starred links: 1 amine or outer side, 2 acyl side, 3 side chain; linkers in the order of their positions; H or OH if unused. Non-standard residues stand in square brackets, D forms with d. Residues, ends and D or L forms follow the SMILES beside them. ξ: configuration not given here. *: point of attachment. ξNMeBip(2'-Et,4'-OMe) = CCc1cc(OC)ccc1-c1ccc(CC(NC)C(=O)O)cc1; ξBip(2'-Et-4'-OMe) = CCc1cc(OC)ccc1-c1ccc(CC(N)C(=O)O)cc1; X11 = CN(C(CCCc1ccccc1)C(=O)[*:2])[*:1]; ξαMePhe(2-F) = CC(N)(Cc1ccccc1F)C(=O)O; NMeD = CN[C@@H](CC(=O)O)C(=O)O; aThr = C[C@H](O)[C@H](N)C(=O)O; ξhhPhe = NC(CCCc1ccccc1)C(=O)O; Aib = CC(C)(N)C(=O)O; Moc = COC(=O)*

Assays:
Format in all cases: cell-based
[1] = test system: RIN5F (Rat Insulinoma) cells; assay: In vitro glucose-dependent insulin secretion (RIN5F cell assay screening protocol); conditions: 16.7 mM glucose load
Protocol: RIN5F (Rat Insulinoma) cells were cultured in RPMI 1640 medium supplemented with sodium pyruvate (1 mM) HEPES and Glucose (4.5 g/L) in a humidified incubator (5% CO2), at 37° C. After trypsinization, RIN5F cells were seeded at a concentration of 0.2×10^6 cells per well, in 12 well plates.
The buffer was replaced after 40 min. and the cells were incubated (37° C.) with the test peptidomimetics, at different concentration, for 30 min., both in the presence (16.7 mM) and absence (0 mM) of glucose load. The supernatant was collected and the insulin amount was measured by ultra sensitive Rat insulin ELISA kit (Crystal Chem, IL). The protein was estimated in the supernatant using Bicinchoninic Acid kit, according to the manufacturer's protocol (Sigma Aldrich, MO). The total insulin content obtained in Pico-gram (pg) was divided with the total protein (μg) in order to normalize for differences in cell density between wells.

Human GLP-1 receptor = target: T1, Human GLP-1 receptor (Homo sapiens, UniProt P43220); assay: In vitro Human GLP-1 R agonist activity (cyclic AMP determination) in CHO/human GLP1R cells
T1 construct: The full-length cDNA was cloned in pcDNA3.1(+); expressed in transfected cells
Protocol: The novel peptidomimetics were screened for Human GLP-1 receptor (HGLP-1 R) agonist activity (in vitro), using the cAMP cell-based assay, in stably transfected CHO/human GLP1R cells. […] CHO cells were grown in Ham's F12 medium containing L-Glutamine (2 mM), HEPES (25 mM), NaHCO3 (1.1 g/L) and supplemented with NewBorn Calf Serum (NBCS; 10%), Penicillin (50 U/ml (v/v)) and Streptomycin (50 ug/ml (v/v)). Cells were split every 3 days 1:8.
The cDNA encoding the human GLP-1 receptor was isolated by RT-PCR according to standard protocol. The full-length cDNA was cloned in pcDNA3.1(+). […] Clones expressing the receptor were generated by G418 (800 μg/ml active, Sigma) selection. The stable clones were thereafter maintained at 500 ug/ml (G418). The selected clone was used between passages 9-25 for cAMP assays.
The trypsin was inactivated using Ham's F12 medium containing 10% NBCS and the cells were suspended in 2 ml of complete medium. […] The medium was aspirated off from the 12 well plate and the cells were washed once using Ham's F12 (plain). […] The cells were incubated with the test compounds for 30 min in humidified atmosphere and 37° C. After the incubation, the medium was removed and cells were washed once with plain Ham's F12. Subsequently, the cells were lysed by adding 500 ul of ice cold 0.1 N HCl to each well and shaking for 30 minutes at 200 rpm. The cells were then scrapped, the lysate was collected in micro centrifuge tubes and centrifuged at 12000 rpm for 10 min to remove the debris. 300 ul of supernatant from each micro-centrifuge tube was then removed into a glass tube and dried under N2 for 30 min, for cAMP estimation. The total cAMP was estimated from the sample according to the manufacturer's protocol using Cyclic AMP immunoassay kit (R&D systems, Minneapolis. MN). The remaining supernatant is used to determine the protein concentration using micro BCA (Sigma). Data is calculated as percent of control (Vehicle: water) and expressed as Mean±SD.

human glucagon receptor = target: T2, human glucagon receptor (Homo sapiens, UniProt P47871); assay: In vitro human glucagon antagonist activity (inhibition of cAMP production) in CHO/human glucagon R cells; conditions: with saturated concentration of glucagon peptide
T2 construct: The full-length cDNA was cloned in pcDNA3.1 (Invitrogen); expressed in transfected cells
Protocol: The CHO-K1 cells (CRL 9618) were obtained from American Type Culture Collection (Rockville, Md.). CHO cells were grown in Ham's F12 medium containing L-Glutamine (2 mM), HEPES (25 mM), NaHCO3 (1.1 g/L) and supplemented with newborn Calf Serum (NBCS; 10%), Penicillin (50 U/ml (v/v)) and Streptomycin (50 ug/ml (v/v)). Cells were split every 3 days 1:8.
The full-length cDNA was cloned in pcDNA3.1 (Invitrogen). […] Clones expressing the receptor were generated by G418 (800 μg/ml active, Sigma) selection. The stable clones were thereafter maintained at 500 ug/ml (G418). The selected clone was used between passages 9-25 for cAMP assays.
The cells were trypsinized using 2 ml of TPVG (0.25% trypsin, 0.53 mM EDTA, 1.38-mM glucose). The trypsin was inactivated using Ham's F12 medium containing 10% NBCS and the cells were suspended in 2 ml of complete medium. […] The medium was aspirated off from the 12 well plate and the cells were washed once using Ham's F12 (plain). The cells were incubated at 37° C. with 500 ul of Ham's F12+1% BSA+0.125 mM RO-20 for 30 min. […] After the incubation, the medium was removed and cells were washed once with plain Ham's F12. Subsequently, the cells were lysed by adding 500 ul of ice cold 0.1 N HCl to each well and shaking for 30 minutes at 200 rpm. The cells were then scrapped, the lysate was collected in micro centrifuge tubes and centrifuged at 12000 rpm for 10 min to remove the debris. 300 ul of supernatant from each micro-centrifuge tube was then removed into a glass tube and dried under N2 for 30 min, for cAMP estimation. The total cAMP was estimated from the sample according to the manufacturer's protocol using Cyclic AMP immunoassay kit (R&D systems, Minneapolis. MN). The remaining supernatant is used to determine the protein concentration using micro BCA (Sigma). Data is calculated as percent of control (Vehicle: water) and expressed as Mean+SD.

T1 sequence (P43220 24-463): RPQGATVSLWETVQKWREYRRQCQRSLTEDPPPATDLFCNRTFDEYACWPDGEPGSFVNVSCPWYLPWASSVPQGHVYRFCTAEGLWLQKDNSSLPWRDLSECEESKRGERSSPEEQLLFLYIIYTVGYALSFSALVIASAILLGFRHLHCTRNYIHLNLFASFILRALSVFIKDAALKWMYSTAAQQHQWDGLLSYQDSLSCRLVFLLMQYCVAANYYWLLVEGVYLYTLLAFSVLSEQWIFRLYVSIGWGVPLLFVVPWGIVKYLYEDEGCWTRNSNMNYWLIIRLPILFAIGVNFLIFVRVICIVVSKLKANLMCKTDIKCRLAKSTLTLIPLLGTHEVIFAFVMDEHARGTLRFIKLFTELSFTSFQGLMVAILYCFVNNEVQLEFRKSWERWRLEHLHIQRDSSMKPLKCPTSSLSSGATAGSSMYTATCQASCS
T2 sequence (P47871 26-477): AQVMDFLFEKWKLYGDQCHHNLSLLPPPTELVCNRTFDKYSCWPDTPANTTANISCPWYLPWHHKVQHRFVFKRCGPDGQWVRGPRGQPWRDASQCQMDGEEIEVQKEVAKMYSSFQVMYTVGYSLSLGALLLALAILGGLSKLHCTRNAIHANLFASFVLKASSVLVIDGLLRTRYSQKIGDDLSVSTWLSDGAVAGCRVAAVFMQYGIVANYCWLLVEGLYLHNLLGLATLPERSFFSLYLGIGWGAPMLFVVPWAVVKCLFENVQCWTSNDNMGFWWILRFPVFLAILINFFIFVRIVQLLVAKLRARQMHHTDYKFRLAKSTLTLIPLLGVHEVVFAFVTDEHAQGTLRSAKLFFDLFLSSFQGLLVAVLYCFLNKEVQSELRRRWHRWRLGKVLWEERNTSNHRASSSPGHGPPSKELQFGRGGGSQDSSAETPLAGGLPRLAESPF

| SMILES | Insulin secretion ([1]; 0.1 nM test compd.) [pg/µg/h] | Insulin secretion ([1]; 1 nM test compd.) [pg/µg/h] | Insulin secretion ([1]; 10 nM test compd.) [pg/µg/h] | Human GLP-1 R activity (cAMP release), % activity with respect to control (Human GLP-1 receptor; 1 nM test compound) [%] | Human GLP-1 R activity (cAMP release), % activity with respect to control (Human GLP-1 receptor; 10 nM test compound) [%] | Human GLP-1 R activity (cAMP release), % activity with respect to control (Human GLP-1 receptor; 100 nM test compound) [%] | Human GLP-1 R activity (cAMP release), % activity with respect to control (Human GLP-1 receptor; 1 μM test compound) [%] | Human GLP-1 R activity (cAMP release), % activity with respect to control (Human GLP-1 receptor; 10 μM test compound) [%] | Human Glucagon receptor antagonistic activity shown as inhibition of cAMP production of Glucagon peptide (human glucagon receptor; 1 nM test compound) [pmol/ml/μg prt] | Human Glucagon receptor antagonistic activity shown as inhibition of cAMP production of Glucagon peptide (human glucagon receptor; 10 nM test compound) [pmol/ml/μg prt] | Human Glucagon receptor antagonistic activity shown as inhibition of cAMP production of Glucagon peptide (human glucagon receptor; 100 nM test compound) [pmol/ml/μg prt] | Human Glucagon receptor antagonistic activity shown as inhibition of cAMP production of Glucagon peptide (human glucagon receptor; 1 μM test compound) [pmol/ml/μg prt] | Human Glucagon receptor antagonistic activity shown as inhibition of cAMP production of Glucagon peptide (human glucagon receptor; 10 μM test compound) [pmol/ml/μg prt] |
| --- | --- | --- | --- | --- | --- | --- | --- | --- | --- | --- | --- | --- | --- |
| CCc1cc(OC)ccc1-c1ccc(CC(NC(=O)[C@H](CC(=O)O)NC(=O)[C@H](CO)NC(=O)[C@@H](NC(=O)C(C)(Cc2ccccc2F)NC(=O)[C@@H](NC(=O)CNC(=O)[C@H](CCC(N)=O)NC(=O)C(C)(C)NC(=O)[C@@H](N)Cc2c[nH]cn2)[C@H](C)O)[C@H](C)O)C(=O)NC(CCCc2ccccc2)C(N)=O)cc1 (stereo partly drawn) [compound 113] (H-H[Aib]QG[aThr][ξαMePhe(2-F)][aThr]SD[ξBip(2'-Et-4'-OMe)][ξhhPhe]-NH2) | 15.6 ± 0.31 | 21.8 ± 0.16 | 35.6 ± 0.28 |  |  |  |  |  |  |  |  |  |  |
| CCc1cc(OC)ccc1-c1ccc(CC(CNC(CCCc2ccccc2F)C(N)=O)NC[C@H](CC(=O)O)NC(=O)[C@H](CO)NC(=O)[C@@H](NC(=O)C(C)(Cc2ccccc2F)NC(=O)[C@@H](NC(=O)CNC(=O)[C@H](CCC(N)=O)NC(=O)C(C)(C)NC(=O)[C@H](Cc2c[nH]cn2)NC(=O)OC)[C@@H](C)O)[C@@H](C)O)cc1 (single isomer, unassigned) [compound 196] |  |  |  | 39 ± 0.10 | 81 ± 0.08 | 89 ± 0.09 | 96 ± 0.11 | 99 ± 0.16 |  |  |  |  |  |
| CCc1cc(OC)ccc1-c1ccc(CC(NC(=O)[C@H](CC(=O)O)NC(=O)[C@H](CO)NC(=O)[C@@H](NC(=O)C(C)(Cc2ccccc2F)NC(=O)[C@@H](NC(=O)CNC(=O)[C@H](CC(C(F)(F)F)C(F)(F)F)NC(=O)C(C)(C)NC(=O)[C@@H](N)Cc2c[nH]cn2)[C@H](C)O)[C@H](C)O)C(=O)NC(CCCc2ccccc2)C(N)=O)cc1 (single isomer, unassigned) [compound 228] |  |  |  | 99 ± 0.11 | 99 ± 0.13 | 99 ± 0.16 | 99 ± 0.06 | 99 ± 0.10 |  |  |  |  |  |
| CCc1cc(OC)ccc1-c1ccc(CC(NC(=O)[C@H](CC(=O)O)NC(=O)[C@H](CO)NC(=O)[C@@H](NC(=O)[C@H](Cc2ccccc2)NC(=O)[C@@H](NC(=O)CNC(=O)[C@H](CCC(N)=O)NC(=O)C2(NC(=O)[C@@H](N)Cc3c[nH]cn3)CCCC2)[C@@H](C)O)[C@@H](C)O)C(=O)NC(CCCc2ccc(Cl)cc2C)C(N)=O)cc1 (single isomer, unassigned) [compound 28] |  |  |  |  |  |  |  |  | 14 ± 0.02 | 11 ± 0.03 | 7 ± 0.22 | 3 ± 0.12 | 0 |
| CCc1cc(OC)ccc1-c1ccc(CC(NC(=O)[C@H](CC(=O)O)NC(=O)[C@H](CO)NC(=O)[C@@H](NC(=O)[C@H](Cc2ccccc2)NC(=O)[C@@H](NC(=O)CNC(=O)[C@H](CCC(N)=O)NC(=O)[C@H](CO)NC(=O)[C@@H](N)Cc2c[nH]cn2)[C@@H](C)O)[C@@H](C)O)C(=O)NC(CCCc2ccccc2)C(N)=O)cc1 (single isomer, unassigned) [compound 5] |  |  |  |  |  |  |  |  | 6 ± 0.02 | 5 ± 0.04 | 3 ± 0.14 | 0 | 0 |
| CCc1cc(OC)ccc1-c1ccc(CC(C(=O)N(C)C(CCCc2ccccc2)C(N)=O)N(C)C(=O)[C@H](CC(=O)O)N(C)C(=O)[C@H](CO)NC(=O)[C@@H](NC(=O)C(C)(Cc2ccccc2F)NC(=O)[C@@H](NC(=O)CNC(=O)[C@H](CCC(N)=O)NC(=O)C(C)(C)NC(=O)[C@H](Cc2c[nH]cn2)NC(=O)OC)[C@H](C)O)[C@H](C)O)cc1 (stereo partly drawn) [compound 150] (Moc-H[Aib]QG[aThr][ξαMePhe(2-F)][aThr]S[NMeD][ξNMeBip(2'-Et,4'-OMe)][X11]-NH2) |  |  |  |  |  |  |  |  | 10 ± 0.12 | 8 ± 0.02 | 6 ± 0.04 | 4 ± 0.05 | 1 ± 0.02 |
| CCc1cc(OC)ccc1-c1ccc(CC(CNC(CCCc2ccccc2F)C(N)=O)NC(=O)[C@H](CC(=O)O)NC(=O)[C@H](CO)NC(=O)[C@@H](NC(=O)C(C)(Cc2ccccc2F)NC(=O)[C@@H](NC(=O)CNC(=O)[C@H](CCC(N)=O)NC(=O)C(C)(C)NC(=O)[C@H](Cc2c[nH]cn2)NC(=O)OC)[C@H](C)O)[C@H](C)O)cc1 (single isomer, unassigned) [compound 188] |  |  |  |  |  |  |  |  | 5 ± 0.04 | 3 ± 0.15 | 1 ± 0.15 | 0 | 0 |
